The values that follow come from patent US20080095826A1, “Method of Increasing Peripheral Blood Lymphocytes” (priority 2006, published 2008).

Holding throughout (format): in vivo, human
In test [1] the test system is Hospitalized elderly test subjects. Put plainly: Rice gruel with monosodium glutamate monohydrate fed to hospitalized elderly for 2 months; blood indices, eating ratio. The following applies: Friedman test, p<0.05, FIG. 1. As to the method: Monosodium glutamate monohydrate was added to rice gruel to 0.5 wt %.
Hospitalized elderly test subjects (n=11 (2 males, 9 females), average age of 85.8±8.2, average body weight of 39.7±5.7 kg), were fed the above-mentioned rice gruel with glutamic acid 3 times a day for 2 months, establishing a continuous administration of 0.8 g on average of monosodium glutamate monohydrate per meal.
From 1 month before the start of administration to 2 months after the start of administration, the eating ratio (ratio of weight of food actually eaten to weight of provided food) was measured. Blood samples were collected early in the morning immediately before the start of administration, 1 month after the start of adminstration, 2 months after the start of administration, and 1 month after the completion of administration, and the blood indices were measured. In addition, the body weight was measured.

For test [2] the test system is unchanged. The test is described as follows: Assessment of general condition by a nurse or care assistant (Table 2). As to the method:
(§1) In the test of Example 1, the test subject was assessed by a nurse or a care assistant for the improvement of the general condition between immediately before the start of the administration of the rice gruel containing a salt of glutamic acid e and 2 months thereafter. The test subjects took the Hasegawa Dementia Scale-Revised for the following 9 items immediately before the administration and 2 months thereafter.

For test [3] the test system is unchanged. The test is described as follows: Hasegawa Dementia Scale-Revised. The following applies: before vs 2 months after intake; particularly for the items relating to speech; FIG. 3. As to the method:
as §1
2. what year, what month, what date, what day of the week?
5. continue to subtract 7 from 100
6. say numbers in reverse order
7. read out from memory of item 4
9. say name of vegetables.

Where [4] appears, read: of 11 test subjects, before vs 2 months after start of administration.

Several values for one entry are separate records, joined by “and”; a condition that tells them apart may be missing. Equal entries are not always repeated.

With `N[C@@H](CCC(=O)O)C(=O)[O-].O.[Na+]` [monosodium glutamate monohydrate, Monosodium glutamate monohydrate], the peripheral lymphocyte count result in test [1] (1 month after completion of administration compared to during administration) is “significantly decreased”. In test [1] (during 2 months of administration, 0.8 g per meal 3 times a day), the peripheral lymphocyte count entry is “increased significantly”. Moreover, the “mind and body conditions such as speech recovery, expression of emotion” value in test [2] (almost all test subjects, 2 months after start of administration) is reported as “tendency toward improvement”. Further, in test [2] (setting [4]), the “Brighter facial expression: number of test subjects marked ◯” value is 8, the “Clearer articulation: number of test subjects marked ◯” value was 7, the “Eating by tightly holding a spoon: number of test subjects marked ◯” value is reported as 2 and the “Establishment of conversation: number of test subjects marked ◯” value is 4. Also, in test [2] (setting [4]), the “Eyes can be opened wide: number of test subjects marked ◯” value worked out at 6; the “Louder voice: number of test subjects marked ◯” value is reported as 4; the “Outward facial expression (delight, anger, sorrow and pleasure): number of test subjects marked ◯” value is on record as 6; the “Recognition of meal: number of test subjects marked ◯” value was determined as 3. Besides, in test [2] (setting [4]), the “Recovery of memory: number of test subjects marked ◯” value was 2 and the “Use of voice: number of test subjects marked ◯” value came to 4. Further, the “1 point for ◯, total points (scale of one to ten)” value in test [2] (one value per individual test subject (No. 6598, 7012, 7020, 6342, 6990, 5039, 7082, 7142, 6957, 5742, 6362), 2 months, monohydrate) is 7 points and 3 points (5×) and 10 points and 2 points (2×) and 6 points and 4 points. Besides, the “Hasegawa Dementia Scale-Revised grade points” value in test [3] is listed as “grade points increased”.
